This passage reports IC50 and inhibition results from patent publication US8637670B2, “Imidazo [4,5-C]quinoline derivatives and their use in the treatment of tumors and/or inflammation” (Piramal Enterprises Limited, priority 2009, dated 2014).

As usually defined, the IC50 is the midpoint of a concentration-inhibition curve. What is called inhibition is the percentage by which the read-out fell short of the control. Lower therefore signals little suppression.

The subject of one test is A549. The test is described as follows: Cytotoxicity, propidium iodide assay, A549. The test is classed as cell-based. Conditions: Homo sapiens; Lung, A549, 48 hours treatment; read-out: IC50, C1a (A549). The procedure:
(§1) The assay was designed as in the reference, Anticancer Drugs, 2002, 13, 1-8, the disclosure of which is incorporated by reference for the teaching of the assay.
(§2) Cells from cell lines as mentioned in the table given below were seeded at a density of 3000 cells/well in a white opaque 96-well plate. Following incubation at 37° C./5% CO2 for a period of 18-24 hours, the cells were treated with various concentrations (stock solution was prepared in DMSO and subsequent dilutions were made in media as per ATCC guidelines) of the compounds of Example 1-40 was for a period of 48 hours. At the end of treatment, the spent culture medium was discarded, the cells were washed with 1×PBS and 200 μl of 7 μg/ml propidium iodide was added to each well. The plates were frozen at −70° C. for at least 24 hours. For analysis, the plates were brought to RT, allowed to thaw and were read in PoleStar fluorimeter with the fluorescence setting. The percentage of viable cells in the non-treated set of wells was considered to be 100 and the percentage viability following treatment was calculated accordingly. IC50 values were calculated from graphs plotted using these percentages. Table 4 depicts the IC50 values of compounds of Example 1-40 in individual cell lines.
(§3) The abbreviations for the Cell Lines as used in Table 4 are: […]

For another test, the system named is A2780. The test is described as follows: Cytotoxicity, propidium iodide assay, A2780. It counts as cell-based. Conditions: Homo sapiens; Ovarian, A2780, 48 hours treatment; read-out: IC50, C3a (A2780). On the procedure: as §1, §2, §3
In a further test the test system is HCT116. The test is described as follows: Cytotoxicity, propidium iodide assay, HCT116. The test is classed as cell-based. Conditions: Homo sapiens, HCT-116; Colon, HCT116, 48 hours treatment; read-out: IC50, C4a (HCT116). The procedure:
as §1, §2, §3

In the next test the test system is PANC 1. The test is described as follows: Cytotoxicity, propidium iodide assay, PANC 1. It counts as cell-based. As to conditions: Homo sapiens; Pancreatic, PANC 1, 48 hours treatment; read-out: IC50, C5a (PANC 1). The procedure: as §1, §2, §3
The next test deals with IL-6. The test is described as follows: Human monocyte assay, LPS-stimulated IL-6 (ELISA). The test is classed as cell-based. Conditions: human monocytes, 1 μg/ml LPS, 5 hours. On the procedure: The assay was designed as in the reference, Physiol. Res., 2003, 52, 593-598, the disclosure of which is incorporated by reference for the teaching of the assay.
Peripheral blood mononuclear cells (hPBMC) were harvested from human blood and suspended in RPMI 1640 culture medium containing 10% FCS, 100 U/mL penicillin and […] streptomycin (assay medium). Monocytes in the hPBMCs were counted using a Coulter Counter following which the cells were resuspended at 2×10^5 monocytes/mL. A cell suspension containing 2×10^4 monocytes was aliquoted per well of a 96-well plate. Subsequently, the hPBMCs were incubated for 4-5 hours at 37° C. under 5% CO2 (During the incubation, the monocytes adhered to the bottom of 96-well plastic culture plate). Following the incubation, the non-adherent lymphocytes were washed with assay medium and the adherent monocytes re-fed with assay medium. After a 48-hour incubation period (37° C., 5% CO2), monocytes were pretreated with various concentrations of compounds of Example 1-40 (prepared in DMSO) or vehicle (0.5% DMSO) for 30 minutes and stimulated with 1 μg/ml LPS (Escherchia coli 0111:B4, Sigma Chemical Co., St. Louis, Mo.). The incubation was continued for 5 hours at 37° C., 5% CO2. Supernatants were harvested, assayed for IL-6 and TNF-α by ELISA as described by the manufacturer (BD Biosciences, USA). Dexamethasone (10 μM) was used as standard for this assay. The 50% inhibitory concentration (IC50) values were calculated by a nonlinear regression method. In all experiments, a parallel plate was run to ascertain the toxicity of compounds of Example 1-40. The toxicity was determined using the MTS assay as described in Am. J. Physiol. Cell Physiol., 2003, 285, C813-C822.
For orientation: ELISA stands for enzyme-linked immunosorbent assay.

A further test concerns the target T1, PI3Kα kinase (Homo sapiens, UniProt P42336).
T1 construct: purchased Millipore, USA
Description: PI3Kα assay (32P incorporation into phosphatidylinositol, TLC densitometry). Conditions: At 100 nM. The test is classed as biochemical. The procedure: The assay was designed as in the reference, Cell, 2006, 125, 733-47 (Supplemental Data), the disclosure of which is incorporated by reference for the teaching of the assay.
The kinase reaction was carried out in a 25 μL volume in a 1.5 mL microcentrifuge tube. The reaction mixture consisted of kinase buffer (10 mM Hepes, pH 7.5, 50 mM MgCl2), 20 ng PI3Kα kinase (Millipore, USA), 12.5 μg phosphatidylinositol (PI), 10 μM ATP and 1 μCi ^32γ P dATP. Compounds of Example 1-40 were added at concentrations (stock solution was prepared in DMSO and subsequent dilutions were made in kinase buffer) as mentioned in the table. The reaction mixture was incubated at 30° C. for 20 minutes and was terminated by adding 1:1 mixture of MeOH and chloroform. The tube contents were mixed on a vortex mixer and centrifuged at 10000 rpm for 2 minutes. 10 μL of the organic (lower) phase was spotted on to a TLC plate (silica, mobile phase: n-propanol and 2 M glacial acetic acid in 65:35 ratio). The plates were dried and exposed to an X-ray film. The bands appearing as a result of ^32γ P incorporation in PI were quantitated using the QuantityOne (BioRad, USA) densitometry program. PI-103 (Calbiochem, USA) was used as a standard.

For the next test, the system named is H460. Description: Cytotoxicity, propidium iodide assay, H460. As to conditions: Homo sapiens, NCI-H460; Lung, H460, 48 hours treatment; read-out: IC50, C1b (H460). It counts as cell-based. The procedure:
as §1, §2, §3

A further test has as its system PC3. The test is described as follows: Cytotoxicity, propidium iodide assay, PC3. The test is classed as cell-based. As to conditions: Homo sapiens, PC-3; Prostate, PC3, 48 hours treatment; read-out: IC50, C2a (PC3). On the procedure: as §1, §2, §3
The next test relates to OVCAR 3. Description: Cytotoxicity, propidium iodide assay, OVCAR 3. As to conditions: Homo sapiens; Ovarian, OVCAR 3, 48 hours treatment; read-out: IC50, C3b (OVCAR 3). The test is classed as cell-based. The procedure: as §1, §2, §3
The next test relates to U 373. Description: Cytotoxicity, propidium iodide assay, U 373. The test is classed as cell-based. Conditions: Homo sapiens, U373 MG; Glioblastoma, U 373, 48 hours treatment; read-out: IC50, C7a (U 373). On the procedure: as §1, §2, §3

T1 sequence (P42336 whole entry): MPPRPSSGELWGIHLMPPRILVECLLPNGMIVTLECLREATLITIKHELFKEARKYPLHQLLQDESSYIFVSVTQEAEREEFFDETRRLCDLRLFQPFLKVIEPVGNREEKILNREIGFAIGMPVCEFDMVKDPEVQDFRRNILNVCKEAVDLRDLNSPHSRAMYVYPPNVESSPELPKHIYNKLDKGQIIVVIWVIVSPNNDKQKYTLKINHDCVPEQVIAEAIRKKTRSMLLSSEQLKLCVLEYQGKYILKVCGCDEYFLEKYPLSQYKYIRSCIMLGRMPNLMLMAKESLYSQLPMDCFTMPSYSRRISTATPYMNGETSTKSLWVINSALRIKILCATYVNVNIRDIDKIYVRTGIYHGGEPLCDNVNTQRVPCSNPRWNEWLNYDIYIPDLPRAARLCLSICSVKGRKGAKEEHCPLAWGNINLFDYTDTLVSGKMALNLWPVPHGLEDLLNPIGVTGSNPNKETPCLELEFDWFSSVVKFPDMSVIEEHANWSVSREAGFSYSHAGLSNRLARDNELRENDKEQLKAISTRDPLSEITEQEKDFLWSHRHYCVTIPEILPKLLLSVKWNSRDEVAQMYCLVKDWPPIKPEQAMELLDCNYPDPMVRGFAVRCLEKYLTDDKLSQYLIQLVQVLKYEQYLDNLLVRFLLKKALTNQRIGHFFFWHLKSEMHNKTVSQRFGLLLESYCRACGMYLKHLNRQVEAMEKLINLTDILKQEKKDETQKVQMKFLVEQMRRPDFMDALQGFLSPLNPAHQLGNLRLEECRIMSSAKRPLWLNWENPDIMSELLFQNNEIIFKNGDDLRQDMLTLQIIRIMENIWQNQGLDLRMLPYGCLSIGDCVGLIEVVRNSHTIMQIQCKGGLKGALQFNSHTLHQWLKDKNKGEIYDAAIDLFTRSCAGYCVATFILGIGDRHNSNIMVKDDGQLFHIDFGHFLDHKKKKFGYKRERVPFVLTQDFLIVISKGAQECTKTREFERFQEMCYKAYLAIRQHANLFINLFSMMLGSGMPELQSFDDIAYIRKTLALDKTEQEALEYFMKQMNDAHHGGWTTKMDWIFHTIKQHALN
T1 sequence (P27986 whole entry partner): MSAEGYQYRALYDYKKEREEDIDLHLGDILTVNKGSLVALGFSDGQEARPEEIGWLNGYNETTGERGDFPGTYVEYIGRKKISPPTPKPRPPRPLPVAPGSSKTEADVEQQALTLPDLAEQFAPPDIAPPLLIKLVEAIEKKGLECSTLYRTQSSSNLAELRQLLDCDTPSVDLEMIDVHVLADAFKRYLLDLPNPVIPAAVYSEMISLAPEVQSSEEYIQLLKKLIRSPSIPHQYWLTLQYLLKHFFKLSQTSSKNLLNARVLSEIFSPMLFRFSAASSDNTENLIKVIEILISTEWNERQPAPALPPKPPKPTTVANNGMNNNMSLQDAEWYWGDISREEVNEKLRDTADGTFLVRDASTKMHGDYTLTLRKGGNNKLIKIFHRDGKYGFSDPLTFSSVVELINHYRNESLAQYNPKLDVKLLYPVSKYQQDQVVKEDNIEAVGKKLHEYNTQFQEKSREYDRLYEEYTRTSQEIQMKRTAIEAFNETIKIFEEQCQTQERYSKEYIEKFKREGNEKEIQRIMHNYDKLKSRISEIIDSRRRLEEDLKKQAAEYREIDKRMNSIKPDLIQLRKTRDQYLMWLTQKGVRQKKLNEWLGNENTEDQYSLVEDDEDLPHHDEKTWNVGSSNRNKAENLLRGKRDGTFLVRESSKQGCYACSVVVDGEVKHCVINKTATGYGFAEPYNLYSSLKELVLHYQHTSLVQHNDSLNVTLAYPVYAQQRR

For the molecule `CC(C)(C#N)c1ccc(-n2c(=O)n(S(=O)(=O)c3cccc(F)c3)c3cnc4ccc(Br)cc4c32)cc1` [Example 10, 2-(4-(8-Bromo-3-(3-fluorophenylsulfonyl)-2-oxo-2,3-dihydro-1H-imidazo[4,5-c]quinolin-1-yl)phenyl)-2-methylpropanenitrile], the concentration for half-maximal inhibition (IC50) is 1000 to 3000 nM in the test on A549; 1000 to 3000 nM in the test with A2780; 1000 to 3000 nM in the test with HCT116; more than 3000 nM in the test on PANC 1; more than 30000 nM with IL-6.

`CC(C)(C#N)c1ccc(-n2c(=O)n(S(=O)(=O)c3ccccc3)c3cnc4ccc(Br)cc4c32)cc1` [Example 7, 2-(4-(8-Bromo-2-oxo-3-(phenylsulfonyl)-2,3-dihydro-1H-imidazo[4,5-c]quinolin-1-yl)phenyl)-2-methylpropanenitrile] showed an inhibition at 0.1 µM against PI3Kα kinase of 10 to 50%.

As for `Cc1ccc2ncc3c(c2c1)n(-c1ccc(C(C)(C)C#N)cc1)c(=O)n3S(=O)(=O)c1cc([N+](=O)[O-])ccc1C` [Example 23, 2-Methyl-2-(4-(8-methyl-3-(2-methyl-5-nitrophenylsulfonyl)-2-oxo-2,3-dihydro-1H-imidazo[4,5-c]quinolin-1-yl)phenyl)propanenitrile], the IC50 with A549 and in the test on HCT116 was more than 3000 nM each time.

For the molecule `C/C=C/C(=O)n1c(=O)n(-c2ccc(C(C)(C)C#N)cc2)c2c3cc(C)ccc3ncc21` [Example 39, (E)-2-(4-(3-But-2-enoyl-8-methyl-2-oxo-2,3-dihydro-1H-imidazo[4,5-c]quinolin-1-yl)phenyl)-2-methylpropanenitrile], the IC50 is more than 3000 nM with A549, more than 3000 nM in the test with HCT116 and not above 1000 nM with IL-6.

For `Cc1cccc(S(=O)(=O)n2c(=O)n(-c3ccc(C(C)(C)C#N)cc3)c3c4cc(C)ccc4ncc32)c1` [Example 21, 2-Methyl-2-(4-(8-methyl-2-oxo-3-(m-tolylsulfonyl)-2,3-dihydro-1H-imidazo[4,5-c]quinolin-1-yl)phenyl)propanenitrile], the half-maximal inhibitory concentration (IC50) in the test with A549 was more than 3000 nM; in the test on HCT116, more than 3000 nM; in the test on IL-6 it was 1000 to 10000 nM.

`CC(=O)c1ccc(S(=O)(=O)n2c(=O)n(-c3ccc(C(C)(C)C#N)cc3)c3c4cc(Br)ccc4ncc32)cc1` [Example 12, 2-(4-(3-(4-Acetylphenylsulfonyl)-8-bromo-2-oxo-2,3-dihydro-1H-imidazo[4,5-c]quinolin-1-yl)phenyl)-2-methylpropanenitrile]: the IC50 in the test with A549 is 1000 to 3000 nM; with H460, 1000 to 3000 nM; in the test on PC3 it was more than 3000 nM; with A2780, 1000 to 3000 nM; with HCT116, more than 3000 nM; with IL-6, more than 30000 nM.

On to `COc1ccc(NC(=O)n2c(=O)n(-c3ccc(C(C)(C)C#N)cc3)c3c4cc(Br)ccc4ncc32)cc1` [Example 31, 8-Bromo-1-(4-(2-cyanopropan-2-yl)phenyl)-N-(4-methoxyphenyl)-2-oxo-1H-imidazo[4,5-c]quinoline-3(2H)-carboxamide], for which the IC50 with A549 is 1000 to 3000 nM; in the test on A2780, more than 3000 nM; in the test on HCT116, more than 3000 nM; in the test on PANC 1, more than 3000 nM.

With `CC(C)(C#N)c1ccc(-n2c(=O)n(S(=O)(=O)c3ccc(OC(F)(F)F)cc3)c3cnc4ccc(Br)cc4c32)cc1` [Example 1, 2-(4-(8-Bromo-2-oxo-3-(4-(trifluoromethoxy)phenylsulfonyl)-2,3-dihydro-1H-imidazo[4,5-c]quinolin-1-yl)phenyl)-2-methylpropanenitrile], the half-inhibitory concentration (IC50) in the test with H460 is 1000 to 3000 nM; with PC3, 1000 to 3000 nM; with A2780, not above 1000 nM; in the test on OVCAR 3, 1000 to 3000 nM; with U 373, more than 3000 nM; in the test on IL-6, 10000 to 30000 nM.

In the case of `Cc1ccc(S(=O)(=O)n2c(=O)n(-c3ccc(C(C)(C)C#N)cc3)c3c4cc(Br)ccc4ncc32)cc1` [Example 8, 2-(4-(8-Bromo-2-oxo-3-tosyl-2,3-dihydro-1H-imidazo[4,5-c]quinolin-1-yl)phenyl)-2-methylpropanenitrile], on PI3Kα kinase, the inhibition at 0.1 µM was 10 to 50%.

With `CC(C)(C#N)c1ccc(-n2c(=O)n(C(=O)NCc3ccccc3)c3cnc4ccc(Br)cc4c32)cc1` [Example 32, N-benzyl-8-bromo-1-(4-(2-cyanopropan-2-yl)phenyl)-2-oxo-1H-imidazo[4,5-c]quinoline-3(2H)-carboxamide], the inhibition at 0.1 µM at PI3Kα kinase was in the range of 10 to 50%. In addition, in the test with IL-6, the IC50 was more than 30000 nM.

With `CC(C)(C#N)c1ccc(-n2c(=O)n(S(=O)(=O)c3ccccc3C#N)c3cnc4ccc(Cl)cc4c32)cc1` [Example 20, 2-(8-Chloro-1-(4-(2-cyanopropan-2-yl)phenyl)-2-oxo-1H-imidazo[4,5-c]quinolin-3(2H)-ylsulfonyl)benzonitrile], the inhibition at 0.1 µM on PI3Kα kinase is 10 to 50%.

In the test with IL-6, `COc1cccc(S(=O)(=O)n2c(=O)n(-c3ccc(C(C)(C)C#N)cc3)c3c4cc(Br)ccc4ncc32)c1` [Example 14, 2-(4-(8-Bromo-3-(3-methoxyphenylsulfonyl)-2-oxo-2,3-dihydro-1H-imidazo[4,5-c]quinolin-1-yl)phenyl)-2-methylpropanenitrile] showed an IC50 of 1000 to 10000 nM.

Take `Cc1ccc2ncc3c(c2c1)n(-c1ccc(C(C)(C)C#N)cc1)c(=O)n3S(=O)(=O)c1cccc(F)c1` [Example 22, 2-(4-(3-(3-Fluorophenylsulfonyl)-8-methyl-2-oxo-2,3-dihydro-1H-imidazo[4,5-c]quinolin-1-yl)phenyl)-2-methylpropanenitrile]: the half-maximal inhibitory concentration (IC50) with A549 is more than 3000 nM; in the test with HCT116, more than 3000 nM; in the test with IL-6, 10000 to 30000 nM.

As for `Cc1ccc2ncc3c(c2c1)n(-c1ccc(C(C)(C)C#N)cc1)c(=O)n3S(=O)(=O)c1cccc2cccnc12` [Example 24, 2-Methyl-2-(4-(8-methyl-2-oxo-3-(quinolin-8-ylsulfonyl)-2,3-dihydro-1H-imidazo[4,5-c]quinolin-1-yl)phenyl)propanenitrile], the IC50 with H460, in the test on PC3, in the test on A2780 and in the test with HCT116 was more than 3000 nM each time.
